Results as given in patent publication US12011444B2, “N-substituted indole derivatives as PGE2 receptor modulators” (Idorsia Pharmaceuticals Ltd, priority 2015, dated 2024).

Key:
PTGER2 (EP2) = PTGER2 (EP2) (Homo sapiens (Human), UniProt P43116); test: hEP2 b-arrestin assay (PathHunter HEK 293 PTGER2 b-arrestin cells); type: cell-based
Procedure, shortened: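 HEK293 cells expressing ProLink-tagged EP2 and EA-fused β-arrestin 2 (enzyme fragment complementation) were seeded 24 h, pre-incubated with compound 15 min at 37 °C, then stimulated with 5 μM PGE2 (final) for 120 min.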

PTRGER4 (EP4) = PTRGER4 (EP4) (Homo sapiens (Human), UniProt P35408); test: hEP4 b-arrestin assay (PathHunter HEK 293 PTGER4 b-arrestin cells); type: cell-based
PTRGER4 (EP4), sequence (P35408 whole entry, looked up, the tested form may be a part): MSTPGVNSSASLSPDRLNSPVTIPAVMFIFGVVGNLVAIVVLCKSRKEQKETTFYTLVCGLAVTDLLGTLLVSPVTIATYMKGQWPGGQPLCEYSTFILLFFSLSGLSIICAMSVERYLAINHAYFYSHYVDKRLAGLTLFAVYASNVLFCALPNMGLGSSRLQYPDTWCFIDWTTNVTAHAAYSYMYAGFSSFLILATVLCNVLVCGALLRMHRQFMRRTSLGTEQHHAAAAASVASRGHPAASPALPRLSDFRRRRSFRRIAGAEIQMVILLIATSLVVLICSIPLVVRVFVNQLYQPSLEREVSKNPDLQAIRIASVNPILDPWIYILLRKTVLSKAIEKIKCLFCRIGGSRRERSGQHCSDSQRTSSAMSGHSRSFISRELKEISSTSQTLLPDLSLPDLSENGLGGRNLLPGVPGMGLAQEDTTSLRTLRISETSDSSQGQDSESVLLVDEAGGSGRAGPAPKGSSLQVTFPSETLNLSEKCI
Procedure, shortened: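 Stably transfected HEK293 cells carrying EP4–ProLink and β-arrestin 2–EA (β-gal fragment complementation), pre-incubated with compound 15 min at 37 °C, then stimulated with PGE2 (20 nM final) for 120 min at 37 °C. Chemiluminescence read after 1 h detection reagent at room temperature; activity per concentration expressed as percent of DMSO control.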

[1] = antagonistic activity on hEP2, mean where measured multiple times
[2] = antagonistic activity on hEP4, mean where measured multiple times
[3] = hEP2 b-arrestin assay (values without asterisk)
[4] = hEP4 b-arrestin assay (values without asterisk)

PTGER2 (EP2), sequence (P43116 whole entry, the tested form may be a part): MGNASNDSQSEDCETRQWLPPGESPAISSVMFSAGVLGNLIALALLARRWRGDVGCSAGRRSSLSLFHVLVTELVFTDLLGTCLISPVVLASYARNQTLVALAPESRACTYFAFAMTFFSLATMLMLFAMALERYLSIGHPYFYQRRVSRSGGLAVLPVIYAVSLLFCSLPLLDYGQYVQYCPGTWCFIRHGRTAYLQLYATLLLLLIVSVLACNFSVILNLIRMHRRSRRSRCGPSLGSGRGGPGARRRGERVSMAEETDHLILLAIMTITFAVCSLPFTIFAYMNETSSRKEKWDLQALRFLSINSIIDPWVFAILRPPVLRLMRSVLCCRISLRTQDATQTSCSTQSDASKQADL

SMILES | IC50 (PTGER2 (EP2); [1]) [nM] | IC50 (PTRGER4 (EP4); [2]) [nM] | IC50 (PTGER2 (EP2); [3]) [nM] | IC50 (PTRGER4 (EP4); [4]) [nM]
Cc1cc(F)cc2c1cc(C)n2CCNc1cc(-c2cc(Cl)c(C(=O)O)c(Cl)c2)ncn1 [compound 390] | 38 | 146 |  | 
COc1cc(-c2cc(NCCn3c(C)cc4c(OC)cccc43)ncn2)cc(C)c1C(=O)O [compound 254] | 64 | 999 |  | 
CCOc1cc(-c2cc(NCCn3c(C)cc4c(F)c(F)ccc43)ncn2)sc1C(=O)O [compound 235] | 2 | 60 |  | 
COc1ccc(F)c2c1cc(C#N)n2CCNc1cc(-c2cc(F)c(C(=O)O)s2)ncn1 [Example 806, 5-{6-[2-(2-Cyano-7-fluoro-4-methoxy-indol-1-yl)-ethylamino]-pyrimidin-4-yl}-3-fluoro-thiophene-2-carboxylic acid] |  |  | 7 | 10
CCCC1NC(=O)c2ccc(-c3cc(NCCn4c(C)cc5c(C)ccc(F)c54)ncn3)cc21 (racemic) [compound 322] | 55 | 295 |  | 
CCCOc1cc(-c2cc(NCCn3c(C#N)cc4c(OC)ccc(F)c43)ncn2)cc(Cl)c1C(=O)O [Example 907, 2-Chloro-4-{6-[2-(2-cyano-7-fluoro-4-methoxy-indol-1-yl)-ethylamino]-pyrimidin-4-yl}-6-propoxy-benzoic acid] |  |  | 24 | 12
CCCOc1cc(-c2cc(NCCn3c(C#N)cc4c(OC)ccc(F)c43)ncn2)ccc1CC(=O)O [Example 833, (4-{6-[2-(2-Cyano-7-fluoro-4-methoxy-indol-1-yl)-ethylamino]-pyrimidin-4-yl}-2-propoxy-phenyl)-acetic acid] |  |  | 62 | 27
COc1ccc(F)c2c1cc(C#N)n2CCNc1cc(-c2ccc(C(=O)O)cc2)ncn1 [Example 974, 4-{6-[2-(2-Cyano-7-fluoro-4-methoxy-indol-1-yl)-ethylamino]-pyrimidin-4-yl}-benzoic acid] |  |  | 36 | 84
COc1ccc(Cl)c2c1cc(C)n2CCNc1cc(-c2cc(Cl)c(C(=O)O)c(Cl)c2)ncn1 [compound 292] | 52 | 397 |  | 
COc1ccc(F)c2c1cc(C#N)n2CCNc1cc(-c2c(C)nn(C)c2C)ncn1 [Example 998, 7-Fluoro-4-methoxy-1-{2-[6-(1,3,5-trimethyl-1H-pyrazol-4-yl)-pyrimidin-4-ylamino]-ethyl}-1H-indole-2-carbonitrile] |  |  | 48 | 686
COc1ccc(F)c2c1cc(C)n2CCNc1cc(-c2ccc3[nH]c(=O)[nH]c3c2)ncn1 [compound 115] | 56 | 742 |  | 
CCCSc1cc(-c2cc(NCCn3c(C#N)cc4c(OC)ccc(F)c43)ncn2)ccc1C(=O)O [Example 935, 4-{6-[2-(2-Cyano-7-fluoro-4-methoxy-indol-1-yl)-ethylamino]-pyrimidin-4-yl}-2-propylsulfanyl-benzoic acid] |  |  | 7 | 4
COc1ccc(F)c2c1cc(C)n2CCNc1cc(-c2cc(OC(C)C)c(CCC(=O)O)s2)ncn1 [Example 1013, 3-(5-{6-[2-(7-Fluoro-4-methoxy-2-methyl-indol-1-yl)-ethylamino]-pyrimidin-4-yl}-3-isopropoxy-thiophen-2-yl)-propionic acid] |  |  | 14 | 17
Cc1cc(-c2cc(NCCn3c(C)cc4c(C)ccc(F)c43)ncn2)sc1C(=O)O [compound 45] | 14 | 75 |  | 
CCOc1cc(-c2cc(NCCn3c(C#N)cc4c(OC)ccc(F)c43)ncn2)ccc1OCC(=O)O [Example 808, (4-{6-[2-(2-Cyano-7-fluoro-4-methoxy-indol-1-yl)-ethylamino]-pyrimidin-4-yl}-2-ethoxy-phenoxy)-acetic acid] |  |  | 7 | 4
CCOc1cc(-c2cc(NCCn3c(C)cc4c(C)ccc(F)c43)ncn2)ccc1C(=O)O [Example 158, 2-ethoxy-4-{6-[2-(7-fluoro-2,4-dimethyl-indol-1-yl)-ethylamino]-pyrimidin-4-yl}-benzoic acid] | 39 | 163 |  | 
COc1cc(F)c(F)c2c1cc(C)n2CCNc1cc(-c2ccc(-c3ncno3)cc2)ncn1 [compound 299, [2-(6,7-Difluoro-4-methoxy-2-methyl-indol-1-yl)-ethyl]-[6-(4-[1,2,4]oxadiazol-5-yl-phenyl)-pyrimidin-4-yl]-amine] | 10 | 81 |  | 
CCc1cc(-c2cc(NCCn3c(C)cc4c(C)cc(F)cc43)ncn2)sc1C(=O)O [compound 104] | 24 | 44 |  | 
COc1ccc(F)c2c1cc(C#N)n2CCNc1cc(-c2c[nH]c3cnccc23)ncn1 [Example 967, 7-Fluoro-4-methoxy-1-{2-[6-(1H-pyrrolo[2,3-c]pyridin-3-yl)-pyrimidin-4-ylamino]-ethyl}-1H-indole-2-carbonitrile] |  |  | 6 | 17
COc1ccc(F)c2c1cc(C#N)n2CCNc1cc(-c2ccnc(N3CCOCC3)c2)ncn1 [Example 1003, 7-Fluoro-4-methoxy-1-{2-[6-(2-morpholin-4-yl-pyridin-4-yl)-pyrimidin-4-ylamino]-ethyl}-1H-indole-2-carbonitrile] |  |  | 55 | 131
COc1ccc(Cl)c2c1cc(C)n2CCNc1cc(-c2cc(C)c(C(=O)O)c(Cl)c2)ncn1 [compound 155] | 55 | 251 |  | 
COc1ccc(F)c2c1cc(C#N)n2CCNc1cc(-c2ccc3c(c2)CNC(=O)N3)ncn1 [Example 970, 7-Fluoro-4-methoxy-1-{2-[6-(2-oxo-1,2,3,4-tetrahydro-quinazolin-6-yl)-pyrimidin-4-ylamino]-ethyl)-1H-indole-2-carbonitrile] |  |  | 31 | 27
COc1ccc(F)c2c1cc(C#N)n2CCNc1cc(-c2ccc(B(O)O)cc2)ncn1 [Example 989, (4-(6-((2-(2-Cyano-7-fluoro-4-methoxy-1H-indol-1-yl)ethyl)amino)pyrimidin-4-yl)phenyl)boronic acid] |  |  | 67 | 62
CCc1cc(-c2cc(NCCn3c(C#N)cc4c(OC)ccc(F)c43)ncn2)ccc1O [Example 822, 1-{2-[6-(3-Ethyl-4-hydroxy-phenyl)-pyrimidin-4-ylamino]-ethyl}-7-fluoro-4-methoxy-1H-indole-2-carbonitrile] |  |  | 6 | 5
COCCOc1ccc(-c2cc(NCCn3c(C#N)cc4c(OC)ccc(F)c43)ncn2)cc1 [Example 963, 7-Fluoro-4-methoxy-1-(2-{6-[4-(2-methoxy-ethoxy)-phenyl]-pyrimidin-4-ylamino}-ethyl)-1H-indole-2-carbonitrile] |  |  | 194 | 126

The remaining lines, values ahead:

IC50 (PTGER2 (EP2); [1]) [nM] | IC50 (PTRGER4 (EP4); [2]) [nM] | IC50 (PTGER2 (EP2); [3]) [nM] | IC50 (PTRGER4 (EP4); [4]) [nM] | SMILES
48 | 358 |  |  | COc1cc(F)c(F)c2c1cc(C)n2CCNc1cc(-c2ccc3cc[nH]c3c2)ncn1 [compound 92, [2-(6,7-Difluoro-4-methoxy-2-methyl-indol-1-yl)-ethyl]-[6-(1H-indol-6-yl)-pyrimidin-4-yl]-amine]
89 | 310 |  |  | Cc1cc(F)cc2c1cc(C)n2CCNc1cc(-c2ccc(-c3ccns3)cc2)ncn1 [compound 84]
40 | 494 |  |  | COc1cccc2c1cc(C)n2CCNc1cc(-c2ccc(-c3nnc(C)o3)c(F)c2)ncn1 [compound 300, {6-[3-Fluoro-4-(5-methyl-[1,3,4]oxadiazol-2-yl)-phenyl]-pyrimidin-4-yl}-[2-(4-methoxy-2-methyl-indol-1-yl)-ethyl]-amine]
29 | 990 |  |  | Cc1cc2ccccc2n1CCNc1cc(-c2ccc3ccncc3c2)ncn1 [compound 133]
21 | 651 |  |  | COc1cccc2c1cc(C)n2CCNc1cc(-c2ccc(-c3ncc[nH]3)cc2)ncn1 [compound 76, {6-[4-(1H-Imidazol-2-yl)-phenyl]-pyrimidin-4-yl}-[2-(4-methoxy-2-methyl-indol-1-yl)-ethyl]-amine]
19 | 249 |  |  | Cc1sc(N)nc1-c1ccc(-c2cc(NCCn3c(C)cc4c(C)ccc(F)c43)ncn2)cc1 [compound 298, {6-[4-(2-Amino-5-methyl-thiazol-4-yl)-phenyl]-pyrimidin-4-yl}-[2-(7-fluoro-2,4-dimethyl-indol-1-yl)-ethyl]-amine]
29 | 970 |  |  | Cc1cc2c(Cl)ccc(F)c2n1CCNc1cc(-c2ccc(C(=O)O)cc2)ncn1 [compound 46]
113 | 123 |  |  | Cc1ccc(F)c2c1cc(C)n2CCNc1cc(-c2ccc(-c3nnc[nH]3)cc2)ncn1 [compound 99]
58 | 677 |  |  | COc1cccc2c1cc(C)n2CCNc1cc(-c2ccc(S(N)(=O)=O)c(C(F)(F)F)c2)ncn1 [compound 380]
33 | 145 |  |  | COc1ccc(F)c2c1cc(C)n2CCNc1cc(-c2ccc(-c3nc(C)no3)cc2)ncn1 [compound 302, [2-(7-Fluoro-4-methoxy-2-methyl-indol-1-yl)-ethyl]-{6-[4-(3-methyl-[1,2,4]oxadiazol-5-yl)-phenyl]-pyrimidin-4-yl}-amine]
 |  | 15 | 12 | COc1ccc(F)c2c1cc(C#N)n2CCNc1cc(-c2ccc(-c3cnc[nH]3)cc2)ncn1 [Example 829, 7-Fluoro-1-(2-{6-[4-(3H-imidazol-4-yl)-phenyl]-pyrimidin-4-ylamino}-ethyl)-4-methoxy-1H-indole-2-carbonitrile]
260 | 534 |  |  | Cc1nc(-c2ccc(-c3cc(NCCn4c(C)cc5c(C)ccc(F)c54)ncn3)cc2)cs1 [compound 195]
98 | 350 |  |  | Cc1cc(F)cc2c1cc(C)n2CCNc1cc(-c2ccc3cnn(C)c3c2)ncn1 [compound 53]
5 | 629 |  |  | Cc1cc2ccccc2n1CCNc1cc(-c2cc(Cl)c(C(=O)O)s2)ncn1 [compound 5]
